In patent publication US10435405B2, “Pyrazolopyridine compounds and uses thereof” (Incyte Corporation, priority 2016, dated 2019):

Target: HPK1 (Homo sapiens (Human), UniProt Q92918)
Assay: HPK1 Kinase Binding Assay
Method: A stock solution of 1 mM test compound was prepared in DMSO. The compound plate was prepared by 3-fold and 11-point serial dilutions. 0.1 μL of the compound in DMSO was transferred from the compound plate to the white 384 well polystyrene plates. The assay buffer contained 50 mM HEPES, pH 7.5, 0.01% Tween-20, 5 mM MgCl2, 0.01% BSA, and 5 mM DTT. 5 μl of 4 nM active HPK1 (SignalChem M23-11G) prepared in the buffer was added to the plate. The enzyme concentration given was based on the given stock concentration reported by the vender. 5 μl of 18 nM tracer 222 (ThermoFisher PV6121) and 4 nM LanthaScreen Eu-Anti GST antibody (ThermoFisher PV5595) were added. After one hour incubation at 25° C., the plates were read on a PHERAstar FS plate reader (BMG Labtech). Ki values were determined.

Chain of HPK1 (Q92918 1-346): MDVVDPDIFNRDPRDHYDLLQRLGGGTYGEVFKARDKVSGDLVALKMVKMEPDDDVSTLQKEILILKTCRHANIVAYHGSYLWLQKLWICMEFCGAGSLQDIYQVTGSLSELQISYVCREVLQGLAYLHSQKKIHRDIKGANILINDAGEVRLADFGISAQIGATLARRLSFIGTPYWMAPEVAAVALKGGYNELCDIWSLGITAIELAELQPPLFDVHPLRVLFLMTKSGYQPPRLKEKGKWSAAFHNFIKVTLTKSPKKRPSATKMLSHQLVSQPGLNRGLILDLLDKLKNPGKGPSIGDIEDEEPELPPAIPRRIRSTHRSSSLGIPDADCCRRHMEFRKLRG

Structure (SMILES) | Ki [nM]
CNCCc1ccc(F)c(-c2cc3c(-c4cnn(C)c4)n[nH]c3cn2)c1F [Example 97, 2-(2,4-Difluoro-3-(3-(1-methyl-1H-pyrazol-4-yl)-1H-pyrazolo[3,4-c]pyridin-5-yl)phenyl)-N-methylethanamine] | ≤ 100
COc1cccc(F)c1-c1cc2c(C(=O)Nc3ccc(N4CCOCC4)cc3)n[nH]c2cn1 [Example 55, 5-(2-Fluoro-6-methoxyphenyl)-N-(4-morpholinophenyl)-1H-pyrazolo[3,4-c]pyridine-3-carboxamide] | ≤ 100
COc1cccc(F)c1-c1cc2c(NC(=O)c3cccc(N4CCN(CC(F)(F)F)C(=O)C4)c3)n[nH]c2cn1 [Example 21, N-(5-(2-Fluoro-6-methoxyphenyl)-1H-pyrazolo[3,4-c]pyridin-3-yl)-3-(3-oxo-4-(2,2,2-trifluoroethyl)piperazin-1-yl)benzamide] | ≤ 100
COc1cccc(F)c1-c1cc2c(NC(=O)c3ccc(F)c(C)c3)n[nH]c2cn1 [Example 10, 4-Fluoro-N-(5-(2-fluoro-6-methoxyphenyl)-1H-pyrazolo[3,4-c]pyridin-3-yl)-3-methylbenzamide] | ≤ 100
CNCc1cc(F)c(-c2cc3c(-c4cnn(CCO)c4)n[nH]c3cn2)c(F)c1 [Example 164, 2-(4-(5-(2,6-Difluoro-4-((methylamino)methyl)phenyl)-1H-pyrazolo[3,4-c]pyridin-3-yl)-1H-pyrazol-1-yl)ethanol] | ≤ 100
COc1cccc(C(=O)Nc2n[nH]c3cnc(-c4c(F)cc(CNC(C)C)cc4F)cc23)c1 [Example 146, N-(5-(2,6-Difluoro-4-((isopropylamino)methyl)phenyl)-1H-pyrazolo[3,4-c]pyridin-3-yl)-3-methoxybenzamide] | ≤ 100
Cn1cc(-c2n[nH]c3cnc(-c4c(F)cc5c(c4F)C(O)CC5)cc23)cn1 (stereo not drawn) [Example 212, 5,7-Difluoro-6-(3-(1-methyl-1H-pyrazol-4-yl)-1H-pyrazolo[3,4-c]pyridin-5-yl)-2,3-dihydro-1H-inden-1-ol] | ≤ 100
Cc1cc(NC(=O)CCN(C)C)cc(F)c1-c1cc2c(-c3cnn(C)c3)n[nH]c2cn1 [Example 84, 3-(Dimethylamino)-N-(3-fluoro-5-methyl-4-(3-(1-methyl-1H-pyrazol-4-yl)-1H-pyrazolo[3,4-c]pyridin-5-yl)phenyl)propanamide] | ≤ 100
CNCc1cc(F)c(-c2cc3c(-c4ccc(OC)cc4)n[nH]c3cn2)c(F)c1 [Example 165, 1-(3,5-Difluoro-4-(3-(4-methoxyphenyl)-1H-pyrazolo[3,4-c]pyridin-5-yl)phenyl)-N-methylmethanamine] | ≤ 100
COc1cccc(F)c1-c1cc2c(NC(=O)c3ccc(F)cc3)n[nH]c2cn1 [Example 5, 4-Fluoro-N-(5-(2-fluoro-6-methoxyphenyl)-1H-pyrazolo[3,4-c]pyridin-3-yl)benzamide] | ≤ 100
Cn1cc(-c2n[nH]c3cnc(-c4c(F)cc(OCC5CCN5)cc4F)cc23)cn1 (stereo not drawn) [Example 106, 5-(4-(Azetidin-2-ylmethoxy)-2,6-difluorophenyl)-3-(1-methyl-1H-pyrazol-4-yl)-1H-pyrazolo[3,4-c]pyridine] | ≤ 100
CN1CCN(c2ccc(-c3n[nH]c4cnc(-c5cc(F)cc(C6(CN)CC6)c5)cc34)cc2)CC1 [Example 42, 1-[1-(3-Fluoro-5-{3-[4-(4-methylpiperazin-1-yl)phenyl]-1H-pyrazolo[3,4-c]pyridin-5-yl}phenyl)cyclopropyl]methanamine] | ≤ 100
Cn1cc(-c2n[nH]c3cnc(-c4c(F)ccc(CNC5CC5)c4F)cc23)cn1 [Example 129, N-(2,4-Difluoro-3-(3-(1-methyl-1H-pyrazol-4-yl)-1H-pyrazolo[3,4-c]pyridin-5-yl)benzyl)cyclo propanamine] | ≤ 100
CNC1CCc2c1cc(C)c(-c1cc3c(-c4cnn(C)c4)n[nH]c3cn1)c2F (stereo not drawn) [Example 220, 4-Fluoro-N,6-dimethyl-5-(3-(1-methyl-1H-pyrazol-4-yl)-1H-pyrazolo[3,4-c]pyridin-5-yl)-2,3-dihydro-1H-inden-1-amine] | ≤ 100
CNC1(c2cc(F)c(-c3cc4c(-c5cnn(C)c5)n[nH]c4cn3)c(F)c2)CC1 [Example 137, 1-(3,5-Difluoro-4-(3-(1-methyl-1H-pyrazol-4-yl)-1H-pyrazolo[3,4-c]pyridin-5-yl)phenyl)-N-methylcyclopropanamine] | ≤ 100

Next, values leading:

Ki [nM] | Structure (SMILES)
≤ 100 | COc1cccc(F)c1-c1cc2c(NC(=O)c3cccc(N4CCN(C)CC4)c3)n[nH]c2cn1 [Example 18, N-(5-(2-Fluoro-6-methoxyphenyl)-1H-pyrazolo[3,4-c]pyridin-3-yl)-3-(4-methylpiperazin-1-yl)benzamide]
≤ 100 | CN1CCN(c2ccc(-c3n[nH]c4cnc(-c5c(F)cccc5CC#N)cc34)cc2)CC1 [Example 194, 2-(3-Fluoro-2-(3-(4-(4-methylpiperazin-1-yl)phenyl)-1H-pyrazolo[3,4-c]pyridin-5-yl)phenyl)acetonitrile]
≤ 100 | COc1cccc(F)c1-c1cc2c(NC(=O)c3ccn(C)n3)n[nH]c2cn1 [Example 15, N-(5-(2-Fluoro-6-methoxyphenyl)-1H-pyrazolo[3,4-c]pyridin-3-yl)-1-methyl-1H-pyrazole-3-carboxamide]
≤ 100 | CC(C(=O)Nc1cc(F)c(-c2cc3c(-c4cnn(C)c4)n[nH]c3cn2)c(F)c1)N1CCCC1 (stereo not drawn) [Example 70, N-(3,5-Difluoro-4-(3-(1-methyl-1H-pyrazol-4-yl)-1H-pyrazolo[3,4-c]pyridin-5-yl)phenyl)-2-(pyrrolidin-1-yl)propanamide]
≤ 100 | COc1cccc(F)c1-c1cc2c(NC(=O)c3cccc(N4CCNC(=O)C4)c3)n[nH]c2cn1 [Example 17, N-(5-(2-Fluoro-6-methoxyphenyl)-1H-pyrazolo[3,4-c]pyridin-3-yl)-3-(3-oxopiperazin-1-yl)benzamide]
≤ 100 | CC(C)NCc1cc(F)c(-c2cc3c(C(=O)Nc4ccc(N5CCN(C)CC5)cc4)n[nH]c3cn2)c(F)c1 [Example 155, 5-(2,6-Difluoro-4-((isopropylamino)methyl)phenyl)-N-(4-(4-methylpiperazin-1-yl)phenyl)-1H-pyrazolo[3,4-c]pyridine-3-carboxamide]
≤ 100 | CNCCc1cc(F)c(-c2cc3c(-c4cnn(C)c4)n[nH]c3cn2)c(F)c1 [Example 96, 2-(3,5-Difluoro-4-(3-(1-methyl-1H-pyrazol-4-yl)-1H-pyrazolo[3,4-c]pyridin-5-yl)phenyl)-N-methylethanamine]
≤ 100 | COc1cccc(C(=O)Nc2n[nH]c3cnc(-c4c(F)cccc4OC)cc23)c1 [Example 9, N-(5-(2-Fluoro-6-methoxyphenyl)-1H-pyrazolo[3,4-c]pyridin-3-yl)-3-methoxybenzamide]
≤ 100 | Cc1cc(C2CCCCN2)cc(F)c1-c1cc2c(-c3cnn(C4CC4)c3)n[nH]c2cn1 (single isomer, unassigned) [Example 233, 3-(1-Cyclopropyl-1H-pyrazol-4-yl)-5-(2-fluoro-6-methyl-4-(piperidin-2-yl)phenyl)-1H-pyrazolo[3,4-c]pyridine]
≤ 100 | CNC(=O)c1ccc(-c2n[nH]c3cnc(-c4c(F)cccc4OC)cc23)cc1OC [Example 102, 4-(5-(2-Fluoro-6-methoxyphenyl)-1H-pyrazolo[3,4-c]pyridin-3-yl)-2-methoxy-N-methylbenzamide]
≤ 100 | Cc1cc(CNC2CC(O)C2)cc(F)c1-c1cc2c(-c3cnn(C)c3)n[nH]c2cn1 (stereo not drawn) [Example 181, 3-(3-Fluoro-5-methyl-4-(3-(1-methyl-1H-pyrazol-4-yl)-1H-pyrazolo[3,4-c]pyridin-5-yl)benzylamino)cyclobutanol]
≤ 100 | CNC1CCc2cc(F)c(-c3ncc4[nH]nc(-c5cnn(C)c5)c4c3OC)c(F)c2C1 (stereo not drawn) [Example 214, 6,8-Difluoro-7-(4-methoxy-3-(1-methyl-1H-pyrazol-4-yl)-1H-pyrazolo[3,4-c]pyridin-5-yl)-N-methyl-1,2,3,4-tetrahydronaphthalen-2-amine]
≤ 100 | COc1cc(NC(=O)CN2CC(C)(C)C2)cc(F)c1-c1cc2c(-c3cnn(C)c3)n[nH]c2cn1 [Example 75, 2-(3,3-Dimethylazetidin-1-yl)-N-(3-fluoro-5-methoxy-4-(3-(1-methyl-1H-pyrazol-4-yl)-1H-pyrazolo[3,4-c]pyridin-5-yl)phenyl)acetamide]
≤ 100 | Cn1cc(-c2n[nH]c3cnc(-c4c(F)cc(NC(=O)CN5CC6(CCOCC6)C5)cc4F)cc23)cn1 [Example 69, N-(3,5-Difluoro-4-(3-(1-methyl-1H-pyrazol-4-yl)-1H-pyrazolo[3,4-c]pyridin-5-yl)phenyl)-2-(7-oxa-2-azaspiro[3.5]nonan-2-yl)acetamide]
≤ 100 | Cc1cc(NC(=O)CN(C)C)cc(F)c1-c1cc2c(-c3cnn(C)c3)n[nH]c2cn1 [Example 81, 2-(Dimethylamino)-N-(3-fluoro-5-methyl-4-(3-(1-methyl-1H-pyrazol-4-yl)-1H-pyrazolo[3,4-c]pyridin-5-yl)phenyl)acetamide]
≤ 100 | CCNCc1ccc(F)c(-c2cc3c(-c4cnn(C)c4)n[nH]c3cn2)c1OC [Example 139, N-(4-Fluoro-2-methoxy-3-(3-(1-methyl-1H-pyrazol-4-yl)-1H-pyrazolo[3,4-c]pyridin-5-yl)benzyl)ethanamine]
≤ 100 | Cc1cc(C2CCCCN2)cc(F)c1-c1cc2c(-c3cnn(C4CC4)c3)n[nH]c2cn1 (single isomer, unassigned) [Example 232, 3-(1-Cyclopropyl-1H-pyrazol-4-yl)-5-(2-fluoro-6-methyl-4-(piperidin-2-yl)phenyl)-1H-pyrazolo[3,4-c]pyridine]
≤ 100 | Cn1cc(-c2n[nH]c3cnc(-c4c(F)cc(OC(=O)N5CCOCC5)cc4F)cc23)cn1 [Example 110, 3,5-Difluoro-4-(3-(1-methyl-1H-pyrazol-4-yl)-1H-pyrazolo[3,4-c]pyridin-5-yl)phenyl morpholine-4-carboxylate]
